Among the data in the supplement of paper PMC4862054 are normalised response and normalised viability values, retold here.

What all share (settings): incubation time: 72 h
In assay [1] the test system is CAL-85-1. The assay is described as follows: normalised response (% of control), CellTiter-Glo; higher = more viable cells (100 = DMSO, 0 = benzethonium chloride kill control). A digest of the protocol:
(§1)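 For each plate, 0.1 % DMSO was set to 100 and a positive kill control to 0. Breast cancer cell lines (20 µl suspension) were seeded into 384-well plates already holding compound at 5 concentrations in 10-fold steps over a 10,000-fold range chosen per compound, and incubated for 72 h. CellTox Green fluorescence at 485/520 nm was read before CellTiter-Glo luminescence, which followed 10 min at room temperature. Each value is the normalised signal at one concentration.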

The next assay concerns SK-BR-3. Described as above. A digest of the protocol: as §1
The subject of assay [2] is HDQ-P1. Described as above. A digest of the protocol:
as §1

The subject of assay [3] is CAL-148. The assay is described as above. A digest of the protocol: as §1
Another assay deals with MCF-10A. Described as above. A digest of the protocol: as §1
In assay [4] the test system is MFM-223. Described as above. The gist of the method: as §1
Assay [5] concerns DU-4475. Described as above. The gist of the method: as §1
Assay [6] has as its system HCC1143. The description is as above. A digest of the protocol: as §1
The test system of assay [7] is BT-474. The assay is described as above. The gist of the method:
as §1

Another assay deals with MDA-MB-453. The assay is described as follows: normalised viability (% of control), CellTiter-Blue; higher = more viable cells (about 100 = DMSO control). A digest of the protocol:
(§2)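 Vehicle (100) and a positive kill control (0) anchored the normalisation of each plate, and Z'-factor was used for quality control. Breast cancer cell lines in 20 µl suspension were incubated 72 h over compound in 5 µl medium in 384-well plates, followed by CellTiter-Blue at 560/590 nm. The value is normalised viability at a single listed concentration of the series.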

Assay [8] deals with CAL-85-1. Described as above. A digest of the protocol: as §2
The next assay deals with BT-549. The description is as above. A digest of the protocol: as §2
For another assay, the system named is MDA-MB-468. The assay is described as above. A digest of the protocol: as §2
Assay [9] concerns HDQ-P1. Described as above. The gist of the method:
as §2

The subject of assay [10] is CAL-148. The assay is described as above. A digest of the protocol:
as §2

The subject of the next assay is HCC1599. The assay is described as above. The gist of the method:
as §2

Assay [11] relates to MFM-223. The assay is described as above. The gist of the method:
as §2

Another assay has as its system MDA-MB-436. Described as above. The gist of the method:
as §2

In assay [12] the test system is DU-4475. The description is as above. A digest of the protocol: as §2
Another assay deals with Hs578T. The description is as above. The gist of the method: as §2
For the next assay, the system named is MDA-MB-231. The description is as above. A digest of the protocol: as §2
The test system of assay [13] is HCC1143. Described as above. The gist of the method:
as §2

The test system of the next assay is CAL-51. The assay is described as above. A digest of the protocol:
as §2

The subject of assay [14] is BT-474. The assay is described as above. A digest of the protocol:
as §2

The test system of the next assay is HCC1937. Described as above. The gist of the method: as §2

Structures are written as SMILES.

On to `Nc1nc2[nH]cnc2c(=S)[nH]1` [Thioguanine] (1000 nM), for which the normalised response in the assay with CAL-85-1 [1] is 70.3%; with SK-BR-3 it was 95.4%; in the assay on HDQ-P1 [2], 66.1%; in the assay on CAL-148 [3], 93.4%; in the assay on MCF-10A, 99.8%; with MFM-223 [4], 93.7%. Also, the normalised response in the assay with DU-4475 [5] amounted to 88.5%; in the assay with HCC1143 [6] it was 99.1%; in the assay on BT-474 [7], 44.8%.
Turning to `Cn1cc(C2=Nc3cc(NC(=O)C(N)C4CCCCC4)cc4c3C2=CNNC4=O)cn1` (stereo unspecified) (1000 nM), the normalised response with CAL-85-1 [1] was determined as 36.8%; in the assay on SK-BR-3 it was 17.8%; in the assay on HDQ-P1 [2], 85.2%; in the assay with CAL-148 [3], 83.8%; with MCF-10A it was 74.5%; in the assay on MFM-223 [4] it was 46.4%. Also, the results for the normalised response in the assay on DU-4475 [5], in the assay with HCC1143 [6] and in the assay with BT-474 [7] were 89%, 64.5% and 68.5%, respectively.
Consider `COc1cc2c(cc1O)CC[C@@H]1[C@@H]2CC[C@]2(C)[C@@H](O)CC[C@@H]12` [2-methoxyestradiol], for which the normalised viability with MDA-MB-453 (3 nM) was found to be 114%; in the assay on MDA-MB-453 (30 nM), 87.5%; in the assay with MDA-MB-453 (100 nM), 96.7%; in the assay on CAL-85-1 [8] (3 nM), 91.4%; in the assay with CAL-85-1 [8] (30 nM), 85.5%; with CAL-85-1 [8] (100 nM), 94.5%. For the same compound, the normalised viability in the assay on BT-549 (10 nM) amounted to 89.1%; with BT-549 (1000 nM), 51.7%; in the assay on BT-549 (10000 nM), 17.6%; in the assay with MDA-MB-468 (10 nM) it was 111%; with MDA-MB-468 (1000 nM), 97.2%; in the assay on MDA-MB-468 (10000 nM), 50.1%. Besides, the normalised viability in the assay with HDQ-P1 [9] (3 nM) came to 103%; in the assay with HDQ-P1 [9] (30 nM) it was 93.9%; in the assay with HDQ-P1 [9] (100 nM), 93.2%; in the assay on CAL-148 [10] (3 nM), 89.8%; in the assay on CAL-148 [10] (30 nM) it was 89.5%; in the assay with CAL-148 [10] (100 nM), 86%. The normalised viability in the assay with HCC1599 (10 nM) was found to be 97.3%; with HCC1599 (1000 nM), 116%; in the assay on HCC1599 (10000 nM) it was 80.5%; with MFM-223 [11] (10 nM), 98.8%; in the assay on MFM-223 [11] (1000 nM), 74.9%; in the assay with MFM-223 [11] (10000 nM) it was 99.2%. Moreover, the normalised viability in the assay with MDA-MB-436 (10 nM) turned out to be 104%; in the assay on MDA-MB-436 (1000 nM), 60.5%; in the assay with MDA-MB-436 (10000 nM), 44.6%; in the assay with DU-4475 [12] (3 nM), 108%; in the assay on DU-4475 [12] (30 nM) it was 102%; with DU-4475 [12] (100 nM), 109%. The normalised viability was found to be 114% with Hs578T (10 nM); 67.5% in the assay on Hs578T (1000 nM); 16.2% in the assay on Hs578T (10000 nM); 83.9% in the assay on MDA-MB-231 (10 nM); 44.8% in the assay on MDA-MB-231 (1000 nM); 30.5% in the assay on MDA-MB-231 (10000 nM). The normalised viability in the assay with HCC1143 [13] (10 nM) came out at 92.4%; in the assay on HCC1143 [13] (1000 nM), 82.7%; with HCC1143 [13] (10000 nM), 37.1%; in the assay on CAL-51 (3 nM), 122%; in the assay on CAL-51 (30 nM), 114%; in the assay on CAL-51 (100 nM), 106%. The normalised viability is 133% in the assay on BT-474 [14] (10 nM); 64.3% in the assay with BT-474 [14] (1000 nM); 48.5% in the assay on BT-474 [14] (10000 nM); 113% in the assay with HCC1937 (10 nM); 54.3% with HCC1937 (1000 nM); 26.8% in the assay on HCC1937 (10000 nM).
